Assay: Elution test, JP XV paddle method
Format: physicochemical
Details: paddle 100 rpm, 900 ml pure water, 37° C.
Protocol: The coating particles obtained in Examples 1 to 3 and the acetaminophen bulk powder were subjected to an elution test.
The elution test was carried out under the conditions of the number of revolutions of paddle: 100 rpm, 900 ml pure water and 37° C., in accordance with JP XV paddle method. Elution concentration of acetaminophen was obtained from an absorbance (285 nm).

What does the source list for `CC(=O)Nc1ccc(O)cc1` [acetaminophen bulk powder, acetaminophen]?
elution concentration of acetaminophen (after 0.5 minute): 90%; elution concentration of acetaminophen (after (about) 1 minute): 100%

— patent US10888520B2, “Coated particle and method for producing coated particle” (KOBE GAKUIN EDUCATIONAL FOUNDATION, priority 2010, dated 2021)
